Data reported in paper PMC11189516, “Structure-guided conversion from an anaplastic lymphoma kinase inhibitor into Plasmodium lysyl-tRNA synthetase selective inhibitors” (Communications Biology, 2024).
Where “and” joins values, the source holds several entries; their conditions need not be identical. Equal values may be shown once. Read-outs that look alike come from different tables or passages of the source.

Columns and labels:
[1] = system: erythrocytic-stage P. falciparum 3D7 parasites; test: In vitro Plasmodium growth assay; format: cell-based, Plasmodium falciparum; settings: for HillSlope (best-fit value): Plasmodium falciparum 3D7; for LogIC50 (best-fit value): Plasmodium falciparum 3D7, log of nM; for IC50: Plasmodium falciparum 3D7, source data, read-out: IC50 (best-fit value); for EC50: Plasmodium falciparum, 3D7, 72 h
Procedure: Parasites were cultured in human O+ erythrocytes according to standard procedures. To prepare the >80% ring stage parasites, asynchronous cultures of parasites were pretreated with 5% sorbitol, and P. falciparum strain 3D7 at the mid-ring stage (6–10 h post-invasion) was used to test antimalarial effects in 96-well plates. Parasites were incubated in a 96-well plate with compound containing 1% parasitemia and, 2% hematocrit for a total volume of 200 μL. […] A relevant DMSO concentration was used as a negative control, and cultured erythrocytes without Plasmodium served as a positive control. The parasites were allowed to grow for 72 h at 37 °C with 5% CO2, 5% O2, and 90% N2. After 72 h, 100 μL of lysis buffer (0.12 mg·mL^−1 Saponin, 0.12% Triton X-100, 30 mM Tris-HCl pH 8.0, and 7.5 mM EDTA) with 5× SYBR Green I (Invitrogen; supplied in 10000× concentration) was added to each well of the plate. The plates were then incubated for 2 h in the dark prior to reading the fluorescence signal at 485 nm excitation and 535 nm emission. The percentage of inhibition was calculated by (NC-fluorescence) × 100/(NC-PC).

ALK = target: T1, ALK (Homo sapiens, UniProt Q9UM73); test: ATP hydrolysis assay (Kinase-Glo) on ALK; format: biochemical; settings: for LogIC50 (best-fit value): log of nM
T1 construct: The plasmid pCDNA3.1_8×His-tev-ALK (kinase domain, 1068–1410) was constructed; 8xHis (N); TEV site (N); made in house; host or cells: Expi293 cells (transient transfection)
T1 sequence (Q9UM73 1068-1410): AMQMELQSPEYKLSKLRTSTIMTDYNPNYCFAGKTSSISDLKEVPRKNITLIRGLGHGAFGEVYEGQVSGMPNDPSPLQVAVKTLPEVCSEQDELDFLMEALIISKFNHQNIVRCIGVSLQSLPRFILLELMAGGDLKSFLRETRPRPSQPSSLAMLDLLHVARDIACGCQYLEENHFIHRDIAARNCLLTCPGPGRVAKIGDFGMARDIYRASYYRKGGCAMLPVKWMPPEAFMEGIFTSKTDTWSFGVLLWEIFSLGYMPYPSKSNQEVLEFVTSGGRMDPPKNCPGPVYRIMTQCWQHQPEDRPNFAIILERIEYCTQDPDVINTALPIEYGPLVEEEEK
Procedure: (§1) The ATP hydrolysis assays were based on Kinase-Glo luminescent Kit (Promega). The experiment was carried out in Corning 384-well white flat bottom microplates. The buffer in the reaction contains 25 mM Hepes pH 7.4, 140 mM NaCl, 40 mM MgCl2, 30 mM KCl, 1 mM TCEP, 0.1 mg·mL^−1 BSA, and 0.004% Tween-20. The compounds were diluted to different concentrations with a 5-fold gradient.
For ALK assays, DMSO was added into negative control wells. 100 nM ALK in 2.5 μL Hepes buffer was mixed with compounds and incubated for 10 min. Then 5 μL substrate (2 μM ATP) was added to start the reaction at 37 °C and incubated for 6 h.
(§2) When the reaction reaches the planned time, 10 μL diluted Kinase-Glo reagent (1/50 diluted with a buffer containing 50 mM Tris pH 7.5 and 5% glycerol) was added and incubated for 15 min. Luminescence was measured on the Magellan plate reader (Tecan) and nonlinear regression was performed with Prism (GraphPad).

[2] = Solubility noted in the cytotoxicity assay; format: physicochemical; settings: highest concentration limited to 100 μM in cell medium
Procedure: Cell viability was analyzed by Cell Counting Kit-8 (CCK8, ApexBio) according to the manufacturer’s protocols. Cells were seeded and cultured at a density of 2.5 × 10^3 cells per well in 100 μL medium in 96-well microplates (Corning). Then, the cells were treated with different concentrations of compound (0, 1 μM, 3 μM, 10 μM, 100 μM, 300 μM). […] After treatment for 72 h, 10 μL of CCK-8 reagent was added to each well and then cultured for 4 h. All experiments were performed in pentaplicate. The absorbance was analyzed at 450 nm using a microplate reader (Tecan) using medium without cells as blanks. Data was processed using GraphPad Prism 9.

PfLysRS [3] = target: T2, PfLysRS (Plasmodium falciparum, UniProt Q8IDJ8); test: Surface plasmon resonance (SPR) assay; format: binding; settings: immobilized PfLysRS; for Kd: 1 mM L-lysine in running buffer, read-out: dissociation constant (KD)
T2 construct: PfLysRS (77–583) was constructed in the vector pET20b, with a C-terminal 6×His tag; 6xHis (C); made in house; host or cells: E. coli BL21 (DE3)
T2 sequence (Q8IDJ8 entry or part of it): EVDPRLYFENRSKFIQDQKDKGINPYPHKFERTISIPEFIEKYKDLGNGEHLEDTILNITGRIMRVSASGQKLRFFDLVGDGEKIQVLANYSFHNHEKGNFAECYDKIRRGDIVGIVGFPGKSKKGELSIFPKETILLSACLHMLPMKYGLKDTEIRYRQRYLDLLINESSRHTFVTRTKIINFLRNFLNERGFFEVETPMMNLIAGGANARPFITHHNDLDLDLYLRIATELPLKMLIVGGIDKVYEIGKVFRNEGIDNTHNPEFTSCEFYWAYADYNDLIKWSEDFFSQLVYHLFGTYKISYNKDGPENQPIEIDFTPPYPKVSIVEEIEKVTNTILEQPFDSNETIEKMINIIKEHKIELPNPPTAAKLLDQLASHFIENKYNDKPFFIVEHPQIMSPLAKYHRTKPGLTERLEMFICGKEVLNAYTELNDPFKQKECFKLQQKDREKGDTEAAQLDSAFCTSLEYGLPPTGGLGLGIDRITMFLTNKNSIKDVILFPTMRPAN
Procedure: PfLysRS was chemically immobilized on a Biacore CM5 sensorchip (immobilization level ~20000 resonance unit/RU) at pH 5.0 according to the immobilization kit (GE Healthcare). PfLysRS (1.7 nM) was captured for 90 s at a flow of 30 µL·min^−1. Affnity between PfLysRS and compounds was measured by SPR on a Biacore 8 K (GE Healthcare) at 25 °C with a running buffer (0.02 M phosphate buffer pH 7.4, 2.7 mM KCl, 0.137 M NaCl, 0.05% Tween 20, with 1 mM L-lysine). The association time was 90 s, the dissociation time was 120 s, and the flowrate was 30 µL·min^−1. Kinetic evaluation of the interaction between LysRS and compounds was performed by global fitting of the data to a 1:1 interaction model using Biacore Evaluation Software 3.1 (GE Healthcare).

HsLysRS = target: T3, HsLysRS (Homo sapiens, UniProt Q15046); test: ATP hydrolysis assay (Kinase-Glo) on HsLysRS; format: biochemical; settings: for LogIC50 (best-fit value): log of nM
T3 construct: HsLysRS (70–581) was constructed in the vector pET20b with a C-terminal 6×His tag; 6xHis (C); made in house; host or cells: E. coli (pET20b; 'purified similarly' to PfLysRS, which was expressed in BL21 (DE3))
T3 sequence (Q15046 70-581): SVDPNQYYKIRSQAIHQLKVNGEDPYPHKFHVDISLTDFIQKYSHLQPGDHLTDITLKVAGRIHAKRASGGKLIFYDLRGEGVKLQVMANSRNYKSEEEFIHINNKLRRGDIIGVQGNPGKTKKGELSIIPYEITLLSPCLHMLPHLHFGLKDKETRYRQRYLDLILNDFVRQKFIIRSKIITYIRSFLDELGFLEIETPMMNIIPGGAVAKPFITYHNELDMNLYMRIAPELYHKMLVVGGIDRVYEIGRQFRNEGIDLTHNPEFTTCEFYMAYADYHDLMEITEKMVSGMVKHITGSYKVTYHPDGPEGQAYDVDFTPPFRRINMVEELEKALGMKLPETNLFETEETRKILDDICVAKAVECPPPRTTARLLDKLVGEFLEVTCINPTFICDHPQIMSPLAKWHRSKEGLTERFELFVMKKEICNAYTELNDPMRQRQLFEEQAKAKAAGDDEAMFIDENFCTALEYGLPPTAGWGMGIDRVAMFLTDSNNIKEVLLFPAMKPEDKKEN
Procedure: as §1
(§3) For LysRS assays, DMSO was added into negative control wells and L-lysine was removed in positive control wells. 100 nM LysRS in 2.5 μL Hepes buffer was mixed with compounds and incubated for 10 min. Then 5 μL substrate mixture (2 μM ATP, 10 μM L-lysine and 31 nM pyrophosphatase) was added to start the reaction at 37 °C and incubated for 6 h.
as §2

PfLysRS [4] = target: T2, PfLysRS; test: ATP hydrolysis assay (Kinase-Glo) on PfLysRS; format: biochemical; settings: for LogIC50 (best-fit value): log of nM
Procedure: as §1, §3, §2

[5] = P. falciparum 3D7, Log(Concentration)/nM 2.290, single repeats
[6] = P. falciparum 3D7, Log(Concentration)/nM 2.592, single repeats
[7] = P. falciparum 3D7, Log(Concentration)/nM 2.893, single repeats
[8] = P. falciparum 3D7, Log(Concentration)/nM 3.193, single repeats
[9] = P. falciparum 3D7, Log(Concentration)/nM 3.496, single repeats
[10] = P. falciparum 3D7, Log(Concentration)/nM 3.796, single repeats
[11] = P. falciparum 3D7, Log(Concentration)/nM 4.097, single repeats
[12] = P. falciparum 3D7, Log(Concentration)/nM 4.398, single repeats
[13] = P. falciparum 3D7, Log(Concentration)/nM 4.699, single repeats
[14] = P. falciparum 3D7, Log(Concentration)/nM 5.000, single repeats
[15] = ALK, source data, read-out: IC50 (best-fit value)
[16] = HsLysRS, Log(Concentration)/nM 2.505, single repeats
[17] = HsLysRS, Log(Concentration)/nM 3.204, single repeats
[18] = HsLysRS, Log(Concentration)/nM 3.903, single repeats
[19] = HsLysRS, Log(Concentration)/nM 4.602, single repeats
[20] = HsLysRS, Log(Concentration)/nM 5.301, single repeats
[21] = HsLysRS, source data, read-out: IC50 (best-fit value)
[22] = PfLysRS, source data, read-out: IC50 (best-fit value)

Row | SMILES | % Inhibition [1, 5] | % Inhibition [1, 6] | % Inhibition [1, 7] | % Inhibition [1, 8] | % Inhibition [1, 9] | % Inhibition [1, 10] | % Inhibition [1, 11] | % Inhibition [1, 12] | % Inhibition [1, 13] | % Inhibition [1, 14] | HillSlope (best-fit value) [1] | LogIC50 (best-fit value) [1] | IC50 [1] [nM] | EC50 [1] [nM] | HillSlope (best-fit value) (ALK; ALK) | LogIC50 (best-fit value) (ALK; ALK) | IC50 (ALK; [15]) [nM] | IC50 (ALK; read-out: IC50 against ALK) [nM] | solubility [2] | koff (PfLysRS [3]) [s⁻¹] | other results
1 | COc1ccc(OC)c(Nc2ncnc(Nc3ccccc3S(=O)(=O)C(C)C)n2)c1 [Compound 36] | -1.297% and 4.596% and -3.299% | 14.49% and 16.27% and 6.82% | 56.52% and 50.3% and 49.85% | 89.44% and 83.77% and 86.88% | 95.44% and 97.78% and 98.22% | 97.55% and 97.66% and 100.2% | 99.56% and 100.2% and 100.1% | 98.55% and 100.8% and 100.2% | 98.67% and 100.8% and 100.6% | 90.1% and 96% and 96.11% | 2.726 | 2.867 | 736 | 736 | 0.6864 | 4.281 | 19100 | > 19100 | poor solubility | 0.0144 | kon (PfLysRS [3]): 907000 M/s; Kd (PfLysRS [3]): 15.9 nM; HillSlope (best-fit value) (HsLysRS; HsLysRS): 0.3683; % Inhibition (HsLysRS; HsLysRS, Log(Concentration)/nM 1.806, single repeats): 3.227% and 2.137% and -5.363%; % Inhibition (HsLysRS; [16]): 19.3% and 12.84% and 21.95%; % Inhibition (HsLysRS; [17]): 37.3% and 27.64% and 28.87%; % Inhibition (HsLysRS; [18]): 26.36% and 22.16% and 26.38%; % Inhibition (HsLysRS; [19]): 50.64% and 39% and 42.59%; % Inhibition (HsLysRS; [20]): 74.45% and 64.99% and 63.03%; LogIC50 (best-fit value) (HsLysRS; HsLysRS): 5.258; IC50 (HsLysRS; [21]): 181000 nM; IC50 (HsLysRS; read-out: IC50 against HsLysRS): > 181000 nM; HillSlope (best-fit value) (PfLysRS [4]; PfLysRS): 1.442; LogIC50 (best-fit value) (PfLysRS [4]; PfLysRS): 2.296; IC50 (PfLysRS [4]; [22]): 198 nM; IC50 (PfLysRS [4]; read-out: IC50 against PfLysRS): 198 nM
2 | COc1ccccc1Nc1ncnc(Nc2ccccc2S(=O)(=O)C(C)C)n1 [Compound 38] | 0.5244% and -0.5244% | 0.1049% and 1.993% | 5.139% and 2.098% | 11.12% and 9.229% | 30.2% and 31.57% | 64.29% and 65.65% | 93.45% and 91.87% | 99.84% and 98.9% | 100.4% and 99.63% | 98.16% and 95.65% | 2.23 | 3.663 | 4610 | 4610 ± 120 | 1.505 | 2.726 | 532 | 532 | poor solubility | 0.0137 | kon (PfLysRS [3]): 218000 M/s; Kd (PfLysRS [3]): 62.8 nM; HillSlope (best-fit value) (HsLysRS; HsLysRS): 2.263; % Inhibition (HsLysRS; [16]): 4.732% and 9.196% and 7.614%; % Inhibition (HsLysRS; [17]): 10.26% and 9.294% and 11.16%; % Inhibition (HsLysRS; [18]): 5.367% and 4.771% and 4.914%; % Inhibition (HsLysRS; [19]): 24.12% and 17.72% and 16.76%; % Inhibition (HsLysRS; [20]): 34.85% and 34.96% and 31.62%; % Inhibition (HsLysRS; HsLysRS, Log(Concentration)/nM 6.000, single repeats): 100.3% and 101% and 91.99%; LogIC50 (best-fit value) (HsLysRS; HsLysRS): 5.476; IC50 (HsLysRS; [21]): 299000 nM; selectivity of PfLysRS over human LysRS (HsLysRS) (HsLysRS; in vitro): 328 times; IC50 (HsLysRS; read-out: IC50 against HsLysRS): 299000 ± 34000 nM; HillSlope (best-fit value) (PfLysRS [4]; PfLysRS): 0.6107; LogIC50 (best-fit value) (PfLysRS [4]; PfLysRS): 2.959; IC50 (PfLysRS [4]; [22]): 910 nM; IC50 (PfLysRS [4]; read-out: IC50 against PfLysRS): 910 nM
